EP1080724A1, “MTP ACTIVITY-LOWERING COMPOSITIONS” (Nippon Shinyaku Co., Ltd., priority 1998, dated 1999)
Where a name gives a salt, the structure may show the parent alone.

Columns and labels:
HepG2 cells [1] = test: TG antisecretory activity: secreted triglyceride from labeled lipid in medium; format: cell-based; conditions: 10 µM, 24 hours of culture, control group 161.2± 2.2
Protocol: HepG2 cells were cultured in DME medium supplemented with 1% BSA and 0.5 mM oleic acid for 24 hours. Then, the medium was changed to 1% BSA-DME containing 10 µM of the amino acid of the invention and simultaneously 0.5 µci of [^14C] acetic acid was added. The cells and medium were recovered after 24 hours of culture. The recovered cells were homogenized by sonication, and after quantitation of protein, the amount of secreted triglyceride (TG) was determined from the amount of labeled lipid in the medium.

MTP = MTP activity-lowering activity (MTP activity in liver homogenate of orally dosed rats, method of Wetterau); format: in vivo; conditions: SD rats, control group 9.09±1.0
Protocol: SD rats weighing about 200 g in groups of 6 were given 20 mg or 60 mg of the hydrochloride of the amino acid of the invention in 10 ml of water in 3 divided doses daily for 2 weeks. Thereafter, the liver was excised and homogenized using a homogenizing buffer (50 mM Tris (pH 7.4), 50 mM potassium chloride, […], leupeptin (5 µg/ml) and 2 mM phenylmethylsulfonyl fluoride) and the homogenate was centrifuged to give a liver homogenate. This liver homogenate was adjusted to a protein concentration of about 2 mg/mL with the same homogenizing buffer and 1 part of deoxycholate solution (0.56%, pH 7.5) was added to 10 parts of the homogenate. The reaction was then carried out at 4°C for 30 minutes, whereby MTP was liberated from the microsomal fraction. The membrane fraction was then removed by centrifugation to give a supernatant. This supernatant was diluted with Tris buffer (a buffer solution containing 15 mM Tris (pH 7.4), 40 mM NaCl, 1 mM EDTA, 0.02% NaN3) and dialyzed against the same buffer at 4°C overnight. The dialysate thus obtained was analyzed for MTP activity by the method of J. R. Wetterau [Science, 258, 999 (1992)].

HepG2 cells [2] = test: Apo B antisecretory activity (1): apo B secreted into medium, ELISA; format: cell-based, human; conditions: for Apo B secretions (µg/well): HepG2 cells, 24 hours culture, control group 9.92±0.80
Protocol: HepG2 cells (100×10^4 cells/dish) were sown on 3.5 cm dishes and precultured using 1 ml DME (containing 10% FCS) medium per dish. Following this preculture, the cells were washed with DME medium twice, added to the test medium, and cultured at 37°C under 95% air-5% carbon dioxide for 24 hours. The test medium was prepared by dissolving cycloalliin in dimethyl sulfoxide and diluted with DME medium containing 1% BSA and 0.5 mM oleic acid to a final cycloalliin concentration of 10^-6 M or 10^-4 M.
After 24 hours' culture, the medium was recovered and the amount of apo B secreted into the medium was determined by ELISA. Thus, anti-human apo B antibody (a 100-fold dilution) was distributed into a 96-well ELISA plate, 100 µL per well, and incubated at 37°C for 2 hours. Then, 100 µL/well of Block Ace was added and the plate was further incubated at 37°C for 2 hours. The wells were washed with PBS-Tween × 3 and 100 µL each of apo B standard solution and HepG2 culture were added, followed by further incubation at 4°C for 16 hours. After the wells were washed with PBS-Tween × 3, 100 µL/well of anti-human apo B marker antibody (a 200-fold dilution) was added and the plate was incubated at 37°C for 2 hours. The wells were washed with PBS-Tween × 3, then 100 µL/well of the substrate solution was added, and the plate was incubated at 25°C for 30 minutes. The reaction was stopped by adding 50 µL of 4.5 M H2SO4 and the absorbance at 482 nm was measured to estimate the amount of apo B secretion.

HepG2 cells [3] = test: Apo B antisecretory activity (2): apo B secretions, ELISA; format: cell-based; conditions: 10 µM; for Apo B secretions (ng/mg protein) After 24 hr of culture: control group 2544±425; for Apo B secretions After 24 hr of culture (%) / Apo B secretions After 48 hr of culture (%): percent of control group (100); for Apo B secretions (ng/mg protein) After 48 hr of culture: control group 2080±110
Protocol: HepG2 cells were cultured in DME medium supplemented with 1% BSA and 0.5 mM oleic acid for 24 hours. Then, the medium was changed to 1% BSA-DME medium containing 10 µM of the amino acid of the invention and 0.5 µci of [^14C] acetic acid was simultaneously added. The cells and medium were recovered after 24 hours or 48 hours of culture. The recovered cells were homogenized by sonication, and after quantitation of protein, the amount of apo B secretions was determined by ELISA.

[4] = 60 mg in 10 ml of water in 3 divided doses daily for 2 weeks

Molecule | TG secretions ([^14C]dpm × 10^-2/mg protein) (HepG2 cells [1]) | MTP activity (%) (MTP; [4]) | Apo B secretions (ng/mg protein) After 24 hr of culture (HepG2 cells [3]) [ng/mg protein] | Apo B secretions After 24 hr of culture (%) (HepG2 cells [3]) | Apo B secretions (ng/mg protein) After 48 hr of culture (HepG2 cells [3]) [ng/mg protein] | Apo B secretions After 48 hr of culture (%) (HepG2 cells [3]) | other results
C[S+]([O-])CCC(N)C(=O)O (racemic) [DL-methionine sulfoxide] | 72.1± 8.5 [^14C]dpm × 10^-2/mg protein | – | – | – | – | – | –
C[C@H]1C[S@+]([O-])C[C@@H](C(=O)O)N1 [Cycloalliin HCl, (1S,3R,5S)-5-methyl-1,4-thiazane-3-carboxylic acid 1-oxide] | – | 4.92±1.0 | – | – | – | – | MTP activity (%) (MTP; 20 mg in 10 ml of water in 3 divided doses daily for 2 weeks): 6.12±0.7 %
C[C@H]1C[S@+]([O-])C[C@@H](C(=O)O)N1 [Cycloalliin, (1S,3R,5S)-5-methyl-1,4-thiazane-3-carboxylic acid 1-oxide] | – | – | – | – | – | – | Apo B secretions (µg/well) (HepG2 cells [2]; 10^-4 M): 7.67±1.31 µg/well; Apo B secretions (µg/well) (HepG2 cells [2]; 10^-6 M): 7.54±1.13 µg/well; apo B secretion (result in words) (HepG2 cells [2]; summary of Table 2): significant suppression
CCSC[C@H](N)C(=O)O [S-ethyl-L-cysteine] | 102.2± 7.1 [^14C]dpm × 10^-2/mg protein | – | 2390±615 | 93.9 | 994±111 | 47.8 | –
CSC[C@H](N)C(=O)O [S-methyl-L-cysteine HCl, S-methyl-L-cysteine] | – | 5.68±0.6 | – | – | – | – | –
CSC[C@H](N)C(=O)O [S-methyl-L-cysteine] | 128.2±14.6 [^14C]dpm × 10^-2/mg protein | – | 2511±173 | 98.7 | 1906±122 | 91.6 | –
CCCSC[C@H](N)C(=O)O [S-n-propyl-L-cysteine] | 99.0± 9.3 [^14C]dpm × 10^-2/mg protein | – | 2157± 86 | 84.8 | 555± 23 | 26.7 | –
S-methyl-L-cysteine sulfoxide [S-methyl-L-cysteine sulfoxide HCl] | – | 5.43±0.6 | – | – | – | – | –
S-n-propyl-L-cysteine sulfoxide | 105.8±18.9 [^14C]dpm × 10^-2/mg protein | – | – | – | – | – | –
